Experimental data published in PubChem BioAssay AID212 (DTP/NCI, 2004).
Where “and” joins values, the source holds several entries; their conditions need not be identical. Equal values may be shown once. Records with an inconclusive call do not appear.

Test system: BDF1 mice, colon carcinoma 38 sc, T/C %
Assay: NCI In Vivo Anticancer Drug Screen. Data for tumor model Colon Carcinoma 38 (subcutaneous) in B6D2F1 (BDF1) mice
Method in brief: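 Compound antitumor activity was assessed in mice carrying transplantable tumors. Survival or tumor size was recorded, and each value is the treated-group measurement divided by that of the vehicle-treated control group.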

[1] = endpoint: median tumor weight (est.), dose: 25.0 mg/kg/injection, schedule: Q07DX002 (ip), vehicle: Klucel (hydroxypropylcellulose) (HPC), higher = larger tumour
[2] = endpoint: median tumor weight (est.), dose: 50.0 mg/kg/injection, schedule: Q07DX002 (ip), vehicle: Klucel (hydroxypropylcellulose) (HPC), higher = larger tumour
[3] = endpoint: median tumor weight (est.), dose: 200.0 mg/kg/injection, schedule: Q07DX002 (ip), vehicle: Klucel (hydroxypropylcellulose) (HPC), higher = larger tumour
[4] = endpoint: median tumor weight (est.), dose: 400.0 mg/kg/injection, schedule: Q07DX002 (ip), vehicle: Klucel (hydroxypropylcellulose) (HPC), higher = larger tumour

SMILES: CCCCCCCC(=O)N/N=C(\CO)[C@]1(O)Cc2c(O)c3c(c(O)c2[C@@H](OC2CC(N)C(O)C(C)O2)C1)C(=O)c1c(OC)cccc1C3=O (some centres undefined)
- T/C (endpoint: median survival time, dose: 30.0 mg/kg/injection, schedule: Q07DX002 (sc), vehicle: saline, higher = longer survival): 100 % of control
- T/C (endpoint: median survival time, dose: 48.0 mg/kg/injection, schedule: Q07DX002 (sc), vehicle: saline, higher = longer survival): 75 % of control
- T/C (endpoint: median survival time, dose: 126.0 mg/kg/injection, schedule: Q07DX002 (sc), vehicle: saline, higher = longer survival): 105 % of control
- T/C (endpoint: median tumor weight (est.), dose: 6.75 mg/kg/injection, schedule: Q07DX002 (ip), vehicle: distilled water + Tween-80, higher = larger tumour): 84 % of control
- T/C (endpoint: median tumor weight (est.), dose: 6.75 mg/kg/injection, schedule: Q07DX002 (ip), vehicle: suspension in saline, higher = larger tumour): 97 % of control
- T/C (endpoint: median tumor weight (est.), dose: 13.5 mg/kg/injection, schedule: Q07DX002 (ip), vehicle: suspension in saline, higher = larger tumour): 73 % of control
- T/C (endpoint: median tumor weight (est.), dose: 27.0 mg/kg/injection, schedule: Q07DX002 (ip), vehicle: suspension in saline, higher = larger tumour): 101 % of control
- T/C (endpoint: median tumor weight (est.), dose: 54.0 mg/kg/injection, schedule: Q07DX002 (ip), vehicle: distilled water + Tween-80, higher = larger tumour): 18 % of control and 41 % of control
- T/C (endpoint: median tumor weight (est.), dose: 54.0 mg/kg/injection, schedule: Q07DX002 (ip), vehicle: suspension in saline, higher = larger tumour): 58 % of control

SMILES: O=[N+]([O-])O.[Ga]
- T/C (endpoint: median tumor weight (est.), dose: 12.5 mg/kg/injection, schedule: Q07DX003 (ip), vehicle: saline, higher = larger tumour): 122 % of control
- T/C (endpoint: median tumor weight (est.), dose: 25.0 mg/kg/injection, schedule: Q07DX002 (ip), vehicle: saline, higher = larger tumour): 159 % of control
- T/C (endpoint: median tumor weight (est.), dose: 25.0 mg/kg/injection, schedule: Q07DX003 (ip), vehicle: saline, higher = larger tumour): 121 % of control
- T/C (endpoint: median tumor weight (est.), dose: 50.0 mg/kg/injection, schedule: Q07DX002 (ip), vehicle: saline, higher = larger tumour): 78 % of control
- T/C (endpoint: median tumor weight (est.), dose: 100.0 mg/kg/injection, schedule: Q07DX002 (ip), vehicle: saline, higher = larger tumour): 81 % of control
- T/C (endpoint: median tumor weight (est.), dose: 100.0 mg/kg/injection, schedule: Q07DX003 (ip), vehicle: saline, higher = larger tumour): 44 % of control

SMILES: COC1=C2C[C@@H](C)C[C@@H](OC)[C@@H](O)[C@H](C)/C=C(\C)[C@@H](OC(N)=O)[C@H](OC)/C=C\C=C(/C)C(=O)NC(=CC1=O)C2=O
- T/C (endpoint: median tumor weight (est.), dose: 0.25 mg/kg/injection, schedule: Q07DX002 (ip), vehicle: saline with Tween-80, higher = larger tumour): 92 % of control and 100 % of control
- T/C (endpoint: median tumor weight (est.), dose: 0.5 mg/kg/injection, schedule: Q07DX002 (ip), vehicle: saline with Tween-80, higher = larger tumour): 86 % of control
- T/C (endpoint: median tumor weight (est.), dose: 1.0 mg/kg/injection, schedule: Q07DX002 (ip), vehicle: saline with Tween-80, higher = larger tumour): 108 % of control
- T/C (endpoint: median tumor weight (est.), dose: 2.0 mg/kg/injection, schedule: Q07DX002 (ip), vehicle: saline with Tween-80, higher = larger tumour): 94 % of control
- T/C (endpoint: median tumor weight (est.), dose: 4.0 mg/kg/injection, schedule: Q07DX002 (ip), vehicle: saline with Tween-80, higher = larger tumour): 98 % of control
- T/C (endpoint: median tumor weight (est.), dose: 8.0 mg/kg/injection, schedule: Q07DX002 (ip), vehicle: saline with Tween-80, higher = larger tumour): 92 % of control and 94 % of control

SMILES: OCC1OC(n2cnc3c(NO)ncnc32)C(O)C1O (centres undefined)
- T/C (endpoint: median tumor weight (est.), dose: 12.5 mg/kg/injection, schedule: Q07DX002 (ip), vehicle: Klucel (hydroxypropylcellulose) (HPC), higher = larger tumour): 88 % of control and 96 % of control
- T/C [1]: 89 % of control and 91 % of control
- T/C [2]: 121 % of control and 100 % of control
- T/C [3]: 118 % of control
- T/C [4]: 96 % of control and 106 % of control

SMILES: CCCCCCC(=O)/C=C/c1cccc(OCOCC)c1
- T/C (endpoint: median tumor weight (est.), dose: 50.0 mg/kg/injection, schedule: Q07DX002 (ip), vehicle: saline with Tween-80, higher = larger tumour): 122 % of control
- T/C (endpoint: median tumor weight (est.), dose: 100.0 mg/kg/injection, schedule: Q07DX002 (ip), vehicle: saline with Tween-80, higher = larger tumour): 103 % of control
- T/C (endpoint: median tumor weight (est.), dose: 200.0 mg/kg/injection, schedule: Q07DX002 (ip), vehicle: saline with Tween-80, higher = larger tumour): 104 % of control
- T/C (endpoint: median tumor weight (est.), dose: 400.0 mg/kg/injection, schedule: Q07DX002 (ip), vehicle: saline with Tween-80, higher = larger tumour): 89 % of control

SMILES: COc1cccc2c1C(=O)c1c(O)c3c(c(O)c1C2=O)C[C@@](O)(C(O)CO)C[C@@H]3OC1CC(N(Cc2ccccc2)Cc2ccccc2)C(O)C(C)O1 (some centres undefined)
- T/C (endpoint: median tumor weight (est.), dose: 12.5 mg/kg/injection, schedule: Q07DX002 (ip), vehicle: water, higher = larger tumour): 75 % of control
- T/C (endpoint: median tumor weight (est.), dose: 25.0 mg/kg/injection, schedule: Q07DX002 (ip), vehicle: water, higher = larger tumour): 72 % of control
- T/C (endpoint: median tumor weight (est.), dose: 50.0 mg/kg/injection, schedule: Q07DX002 (ip), vehicle: water, higher = larger tumour): 36 % of control

SMILES: CC1=NNC(=O)C1CCO (centres undefined)
- T/C [1]: 97 % of control
- T/C [2]: 95 % of control
- T/C (endpoint: median tumor weight (est.), dose: 100.0 mg/kg/injection, schedule: Q07DX002 (ip), vehicle: Klucel (hydroxypropylcellulose) (HPC), higher = larger tumour): 69 % of control
- T/C [3]: 72 % of control
- T/C [4]: 55 % of control
- T/C (endpoint: median tumor weight (est.), dose: 800.0 mg/kg/injection, schedule: Q07DX002 (ip), vehicle: Klucel (hydroxypropylcellulose) (HPC), higher = larger tumour): 77 % of control
